Experiment [1] can be described thus: competitive binding to P. falciparum Hsp90 – cell lysate, FLECS, GFP-tagged PfHsp90, E. coli lysate, confirmation (AID 1920066). The conditions noted are these: liver stage Plasmodium parasite inhibition.
Experiment [2] deals with Heat shock protein 90 (Plasmodium falciparum), GFP-tagged. The description is as above. The conditions noted are these: E. coli lysate PfHsp90-GFP ATP-resin elution, fluorescence; at 500 µM; stronger effect = higher value.

As to `NC(=O)c1ccc(NC(=O)CN2CSCC2=O)cc1`, in experiment [1], the EC50 was greater than 30 µM. Moreover, in experiment [2], the relative binding (F/Fo) is 2.54.
The matching figures for `Cn1cc(S(=O)(=O)N2CCN(C(=O)c3ccc(F)cc3)CC2)cc1C(N)=O`: greater than 10 µM and 2.06.
In experiment [1], `Cc1ccc(C(C)C)c(OCC(=O)Nc2cccc3cnccc23)c1` returned a 50% effective concentration (EC50) greater than 30 µM. For the same compound, the relative binding (F/Fo) in experiment [2] is 2.15.
The corresponding values for `CC[C@@H](C)Nc1cc(C(=O)NC2CC3CCC(C2)N3c2ccc(C(=O)C3CC3)cn2)c(C)cc1C(N)=O` (some centres undefined) are 0.24 µM and 3.44.
The corresponding values for `CN(CC(=O)N1CCCC1)c1ncnc2cc(Cl)ccc12` are greater than 30 µM and 2.06.
The corresponding values for `CCOC(=O)NCc1ccc(-n2c(-c3cc(C(C)C)c(O)cc3O)n[nH]c2=S)cc1` are 1.5 µM and 4.9.
`CS(=O)(=O)c1cccc(C(=O)Nc2nc3ccccc3nc2N2CCCC2)c1`: the EC50 in experiment [1] was greater than 30 µM. Moreover, in experiment [2], the relative binding (F/Fo) is 2.59.

In general, EC50 refers to the concentration at which the effect is half-maximal.

These data come from PubChem BioAssay AID1920066 (Derbyshire Lab, Chemistry Department, Duke University, 2024).
